From patent US20240190841A1, “MODULATORS OF BCL6 PROTEOLYSIS AND ASSOCIATED METHODS OF USE” (Arvinas Operations, Inc., priority 2022, published 2024)

target: T1, BCL6 (Homo sapiens, UniProt P41182); assay: Immunofluorescence high content imaging of BCL6 degradation in T47D cells; assay type: cell-based; details: T47D breast cancer epithelial cells, 3 days incubation
T1 construct: endogenous in cells; host or cells: T47D breast cancer epithelial cells
Procedure, shortened: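 T47D breast cancer cells treated 3 days at 37 °C with an 11-point 3-fold dilution series (top final 0.1 or 1 μM). Fixed with 4% PFA, Triton-permeabilised, stained with anti-BCL6 rabbit antibody plus Alexa-488 secondary, CellMask and Hoechst; imaged at 10×, 4 fields/well.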

Q: Which results are given for CNC(=O)COc1cc2cc(Nc3nc(N4CCC(O[C@H]5C[C@H](N6CCN(c7cc(F)c8c(c7)n(C(C)C)c(=O)n8C7CCC(=O)NC7=O)CC6)C5)CC4)ncc3Cl)ccc2n(C(C)C)c1=O (some centres unmarked) [Compound 29, 2-({6-[(5-chloro-2-{4-[(1r,3r)-3-{4-[1-(2,6-dioxopiperidin-3-yl)-7-fluoro-2-oxo-3-(propan-2-yl)-2,3-dihydro-1H-1,3-benzodiazol-5-yl]piperazin-1-yl}cyclobutoxy]piperidin-1-yl}pyrimidin-4-yl)amino]-2-oxo-1-(propan-2-yl)-1,2-dihydroquinolin-3-yl}oxy)-N-methylacetamide]?
A: DC50: < 0.01 µM; Dmax: ≥ 70%

Q: How did the DC50 turn out when CNC(=O)COc1cc2cc(Nc3nc(N4CCC(O[C@H]5C[C@H](N6CCN(c7ccc8c(cnn8C8CCC(=O)NC8=O)c7)CC6)C5)CC4)ncc3Cl)ccc2n(C(C)C)c1=O (some centres unmarked) [Compound 21, 2-({6-[(5-chloro-2-{4-[(1r,3r)-3-{4-[1-(2,6-dioxopiperidin-3-yl)-1H-indazol-5-yl]piperazin-1-yl}cyclobutoxy]piperidin-1-yl}pyrimidin-4-yl)amino]-2-oxo-1-(propan-2-yl)-1,2-dihydroquinolin-3-yl}oxy)-N-methylacetamide] was run?
A: < 0.01 µM

Q: And the Dmax?
A: ≥ 70%

Q: How did the DC50 turn out when CNC(=O)COc1cc2cc(Nc3nc(N4CCC(O[C@H]5C[C@H](N6CCN(c7ccc8c(c7Cl)[C@@H](C)N([C@H]7CCC(=O)NC7=O)C8=O)[C@H](C)C6)C5)CC4)ncc3Cl)ccc2n(C(C)C)c1=O (single isomer, unassigned) [Compound 32] was run?
A: < 0.01 µM

Q: What about the Dmax of the same molecule?
A: ≥ 70%

Q: How did the DC50 turn out when CNC(=O)COc1cc2cc(Nc3nc(N4CCC(O[C@H]5C[C@H](N6CCN(c7ccc8c(c7F)n(C(C)C)c(=O)n8C7CCC(=O)NC7=O)CC6)C5)CC4)ncc3Cl)ccc2n(C(C)C)c1=O (some centres unmarked) [Compound 28, 2-({6-[(5-chloro-2-{4-[(1r,3r)-3-{4-[1-(2,6-dioxopiperidin-3-yl)-4-fluoro-2-oxo-3-(propan-2-yl)-2,3-dihydro-1H-1,3-benzodiazol-5-yl]piperazin-1-yl}cyclobutoxy]piperidin-1-yl}pyrimidin-4-yl)amino]-2-oxo-1-(propan-2-yl)-1,2-dihydroquinolin-3-yl}oxy)-N-methylacetamide] was run?
A: < 0.01 µM

Q: What about the Dmax of the same molecule?
A: ≥ 70%
